Legend:
RPE-choroid complex = assay: IVT injection of naked pVAX2-Luc followed by gas injection and/or ET, luciferase in RPE-choroid complex (Example 1); assay type: in vivo, rat; settings: IVT pre-injection 30 min before plasmid, Indocyanin Green 2.5 mg/ml, Polysorbate 80 0.2 mg/ml
Description: (§1) FIG. 2: Illustrates the intracellular delivery of naked plasmids and gene expression in the neuroretina (FIG. 2A) and the RPE-choroid complex (FIG. 2B) of IVT pre-injection of 10 μl of the corticosteroid pharmaceutical specialty KENACORT® at 20 mg/ml (triamcinolone acetonide (TA) as active agent and polysorbate 80 as excipient), Indocyanine Green at 2.5 mg/ml or Polysorbate 80 at 0.2 mg/ml 30 min before IVT injection of the plasmid pVAX2-Luc (30 μg in 10 μl in NaCl 0.45%), followed by gas injection or ET application [8×(80V; 20 ms; 5 Hz)] or combination of both immediately upon IVT injection of the plasmid. Luminescence is expressed in counts/s (cps). The results are expressed as the mean±sem of 4 independent experiments.
Rats receiving intravitreal injection of pVAX2-luc were sacrificed on day 7 after treatment. The eyes were enucleated and dissected under an operating microscope, the neuroretina and RPE/choroid complex removed, snap frozen in liquid nitrogen and kept at −80° C. until tested.
Tissue samples were then homogenized in 0.3 ml (rat neuroretina and RPE/choroid complex) or 1.0 ml (mouse tibialis anterior muscle) of cell culture lysis reagent (Promega, Charbonniere, France) supplemented with protease inhibitor cocktail (Boehringer, Mannheim, Germany) (one tablet for 50 ml). After centrifugation 10 min at 15 000 g and 4° C., tissue lysate supernatant was collected.
(§2) The luciferase activity was assessed on 10 μl of sample (tissue lysate supernatant or ocular fluid) placed in a white 96 wells plate.
(§3) The detector was a Wallac Victor luminometer (EG&G Wallac, Evry, France) which adds 50 μl of luciferase assay substrate or Gaussia luciferase assay substrate (Promega) to the sample (tissue lysate supernatant or ocular fluid respectively) and integrates the light produced by the sample during 10 s. Results are given for the whole sample in counts per second (cps) or in cps/ml/mg of protein.
The effect of various chemical agents on the RPE-choroid complex gases injection or electrotransfer-induced intracellular delivery of the naked plasmid pVAX2-Luc and gene expression of the luciferase in neuroretina was evaluated.
Thirty μg of naked pVAX2-Luc in 10 μl in NaCl 0.45% was injected intravitreously in one eye of anaesthetized rats (the contra lateral eye was used as control) immediately followed by gas injection (C2F6 or SF6) or ET application [8×(80V; 20 ms; 5 Hz)] or combination of both. […]
(§4) 7 days after the treatment the animals were sacrificed, the eyes were enucleated and dissected under an optical microscope to isolate the neuroretina and the RPE-choroid complex and the luminescence of the luciferase was measured.

neuroretina = assay: IVT injection of naked pVAX2-Luc followed by gas injection and/or ET, luciferase in neuroretina (Example 1); assay type: in vivo, rat; settings: IVT pre-injection 30 min before plasmid, Indocyanin Green 2.5 mg/ml, Polysorbate 80 0.2 mg/ml
Description: as §1, with “experiments. […]” for “experiments.”
The luciferase activity was assessed on 10 μl of sample (tissue lysate supernatant or ocular fluid) placed in a white 96 wells plate. […]
The effect of various chemical agents on the RPE-choroid complex gases injection or electrotransfer-induced intracellular delivery of the naked plasmid pVAX2-Luc and gene expression of the luciferase in neuroretina was evaluated. […]
as §4

ciliary muscle = assay: Luciferase expression in aqueous humor after transfection of the ciliary muscle with naked pGLuc (Example 5); assay type: in vivo, rat; settings: for Luciferase (cps) Mean ± sem, level of expression in aqueous humor: pre-treatment 20 mg/ml (10 μl) 45 min before 15 μg pGLuc, day 7, background 99.3 ± 1.5, water 103.5 ± 3.2
Description: FIG. 6: Illustrates the intracellular delivery of naked plasmids to a smooth muscle, the ciliary muscle, and subsequent gene expression in ocular media. Intramuscular pre-injection of triamcinolone acetonide (TA) or anecortave acetate (AA) at 20 mg/ml (10 μl) was carried out 45 min before intramuscular injection of the naked plasmid pGLuc (15 μg in 10 μl in NaCl 0.45%). No transfection or water instead of corticosteroid was used as control. Luminescence is expressed in counts/s (cps). The results are expressed as the mean±sem of 4 to 6 independent experiments.
To reach the ciliary muscle located below the sclera posterior to the limbus, the intra ciliary muscle injection was carried out through a tunneled corneal incision. When the needle had crossed the limbus, it was inserted slightly deeper for a distance of 1 mm and the solutions were injected.
Rats receiving injection of pGLuc in the ciliary muscle were sacrificed on day 7 after treatment. Intraocular fluids were collected on enucleated eyes, clarified by centrifugation and the supernatants stored at −20° C. until tested.
as §2, §3
Fifteen μg of naked pGLuc in 10 μl in NaCl 0.45% was injected in the ciliary muscle of one eye of anaesthetized rats (the contra lateral eye was used as control).
The plasmid injection was preceded 45 min before by intramuscular injection of 10 μl of triamcinolone acetonide (TA, 20 mg/ml) or anecortave acetate (AA, 20 mg/ml), a synthetic corticosteroid.
No injection and pre-injection with water were performed as controls.

tibialis anterior muscle = assay: Luciferase expression in tibialis anterior muscle after injection of naked pVAX2-Luc (Example 6); assay type: in vivo, mouse; settings: water control 6.749
Description: Luminescence is expressed in counts/s/ml/mg of protein (cps/ml/mg). The results are expressed as the mean±sem of 3 independent experiments. […] Intramuscular injection in the mouse tibialis anterior muscle was carried out with a 30 G needle on a 300 μl microfine syringe (BD Biosiences). Mouse receiving injection of pVAX2-luc in the tibialis anterior muscle were sacrificed on day 7 after treatment. The tibialis anterior muscle was removed, snap frozen in liquid nitrogen and kept at −80° C. until tested. Tissue samples were then homogenized in 0.3 ml (rat neuroretina and RPE/choroid complex) or 1.0 ml (mouse tibialis anterior muscle) of cell culture lysis reagent (Promega, Charbonniere, France) supplemented with protease inhibitor cocktail (Boehringer, Mannheim, Germany) (one tablet for 50 ml). After centrifugation 10 min at 15 000 g and 4° C., tissue lysate supernatant was collected. The luciferase activity was assessed on 10 μl of sample (tissue lysate supernatant or ocular fluid) placed in a white 96 wells plate. The detector was a Wallac Victor luminometer (EG&G Wallac, Evry, France) which adds 50 μl of luciferase assay substrate or Gaussia luciferase assay substrate (Promega) to the sample (tissue lysate supernatant or ocular fluid respectively) and integrates the light produced by the sample during 10 s. Results are given for the whole sample in counts per second (cps) or in cps/ml/mg of protein. One hundred μg of pVAX1-LacZ or thirty μg of naked pVAX2-Luc in 100 or 30 μl in NaCl 0.45% were, respectively, injected into the tibialis anterior muscle of rats or into the tibialis anterior muscle of mice. In the mice, the plasmid injection was preceded 30 min before by intramuscular injection of 30 μl of triamcinolone acetonide (TA) or dexamethasone (DEX) at 2 or 20 mg/ml, or soluble DEX at 4 mg/ml. Pre-injection with water was performed as control.

[1] = pre-treatment 2 mg/ml (30 μl) 30 min before plasmid
[2] = pre-treatment 20 mg/ml (30 μl) 30 min before plasmid

Molecule | improvement of the efficacy of gases injection, by contrast with KENACORT (RPE-choroid complex) | improvement of the efficiency of ET (RPE-choroid complex) | efficiency in improving transfection, by contrast with KENACORT (neuroretina) | Luciferase (cps) Mean ± sem, level of expression in aqueous humor (ciliary muscle) | Luciferase (cps) means (10^6) (tibialis anterior muscle; [1]) | Luciferase (cps) means (10^6) (tibialis anterior muscle; [2]) | level of expression of Luciferase in the aqueous humor compared to naked plasmid alone (ciliary muscle; pre-injection 20 mg/ml (10 μl) 45 min before 15 μg pGLuc)
CC1(C)C(/C=C/C=C/C=C/C=C2\N(CCCCS(=O)(=O)O)c3ccc4ccccc4c3C2(C)C)=[N+](CCCCS(=O)(=O)[O-])c2ccc3ccccc3c21 [Indocyanin Green, indocyanine green] | less efficient | improved, in a certain extent | less efficient | – | – | – | –
polysorbate 80 | less efficient | improved, in a certain extent | less efficient | – | – | – | –
CC1(C)O[C@@H]2C[C@H]3[C@@H]4CCC5=CC(=O)C=C[C@]5(C)[C@@]4(F)[C@@H](O)C[C@]3(C)[C@]2(C(=O)CO)O1 [TA, triamcinolone acetonide] | – | – | – | 122.3 ± 6.8 cps | 6.849 10^6 cps | 6.431 10^6 cps | –
C[C@@H]1C[C@H]2[C@@H]3CCC4=CC(=O)C=C[C@]4(C)[C@@]3(F)[C@@H](O)C[C@]2(C)[C@@]1(O)C(=O)CO [DEX, dexamethasone] | – | – | – | – | 8.526 10^6 cps | 30.13 10^6 cps | –
CC(=O)OCC(=O)[C@@]1(O)CC[C@H]2[C@@H]3CCC4=CC(=O)CC[C@]4(C)C3=CC[C@@]21C [AA, anecortave acetate] | – | – | – | 122.5 ± 7.2 cps | – | – | dramatically improve
